Results from paper PMC8793051 (ACS Omega, 2022).

Experiments:
HCT-116 = experiment: NCI-60 SRB growth assay; type: cell-based, human
786-0 = experiment: NCI-60 SRB growth assay; type: cell-based, human
K-562 = experiment: NCI-60 SRB growth assay; type: cell-based, human
COLO 205 = experiment: NCI-60 SRB growth assay; type: cell-based, human
OVCAR-3 = experiment: NCI-60 SRB growth assay; type: cell-based, human
MOLT-4 = experiment: NCI-60 SRB growth assay; type: cell-based, human
U251 = experiment: NCI-60 SRB growth assay; type: cell-based, human
CAKI-1 = experiment: NCI-60 SRB growth assay; type: cell-based, human
HT29 = experiment: NCI-60 SRB growth assay; type: cell-based, human
MDA-MB-468 = experiment: NCI-60 SRB growth assay; type: cell-based, human; details: MDA-MB-468
SF-295 = experiment: NCI-60 SRB growth assay; type: cell-based, human
BT-549 = experiment: NCI-60 SRB growth assay; type: cell-based, human; details: BT-549
HS 578T = experiment: NCI-60 SRB growth assay; type: cell-based, human
[1] = tested on: oligo-1: d(CGCGAATTCGCG)2; experiment: UV thermal denaturation; type: binding
NIH3T3 = experiment: MTT cytotoxicity assay; type: cell-based; details: Mus musculus, NIH3T3, 48 h
PC-3 = experiment: NCI-60 SRB growth assay; type: cell-based, human
MDA-MB-435 = experiment: NCI-60 SRB growth assay; type: cell-based, human
[2] = tested on: oligo-2: d(CGATGTACATCG)2; experiment: Fluorescence titration; type: binding; details: 20 °C, pH 7.2
KM12 = experiment: NCI-60 SRB growth assay; type: cell-based, human
[3] = tested on: panel of 60 human cancer cell lines; experiment: cells; details: read-out: GI50 concentration range
A498 = experiment: NCI-60 SRB growth assay; type: cell-based, human
UACC-62 = experiment: NCI-60 SRB growth assay; type: cell-based, human
ACHN = experiment: NCI-60 SRB growth assay; type: cell-based, human
NCI-H460 = experiment: NCI-60 SRB growth assay; type: cell-based, human
OVCAR-5 = experiment: NCI-60 SRB growth assay; type: cell-based, human
NCI-H522 = experiment: NCI-60 SRB growth assay; type: cell-based, human
HOP-92 = experiment: NCI-60 SRB growth assay; type: cell-based, human
IGROV1 = experiment: NCI-60 SRB growth assay; type: cell-based, human
SR = experiment: NCI-60 SRB growth assay; type: cell-based, human
HCT-15 = experiment: NCI-60 SRB growth assay; type: cell-based, human
[4] = tested on: oligo-2: d(CGATGTACATCG)2; experiment: UV thermal denaturation; type: binding
RXF 393 = experiment: NCI-60 SRB growth assay; type: cell-based, human

SMILES: CCCCN1CCN(c2ccc3[nH]c(-c4ccc5[nH]c(-c6ccc(OCC)c(OCC)c6)nc5c4)nc3c2)CC1 [12a, 5-(4-Butylpiperazin-1-yl)-2-(2-(3,4-diethoxyphenyl)-1H-benzo[d]imidazol-5-yl)-1H-benzo[d]imidazole]
- TGI (HCT-116; HCT-116): 1.66 µM
- GI50 (HCT-116; Homo sapiens, HCT-116): 0.43 µM
- CC50 (HCT-116; Homo sapiens, HCT-116, read-out: LC50): 4.3 µM
- TGI (786-0; 786–0): 2.84 µM
- GI50 (786-0; Homo sapiens, 786-0): 1.41 µM
- CC50 (786-0; Homo sapiens, 786-0, read-out: LC50): 5.72 µM
- GI50 (K-562; Homo sapiens, K562): 0.52 µM
- CC50 (K-562; Homo sapiens, K562, read-out: LC50): 7.53 µM
- TGI (K-562; K-562): 2.27 µM
- TGI (COLO 205; COLO 205): 1.52 µM
- GI50 (COLO 205; Homo sapiens, COLO 205): 0.23 µM
- CC50 (COLO 205; Homo sapiens, COLO 205, read-out: LC50): 6.18 µM
- GI50 (OVCAR-3; Homo sapiens, OVCAR-3): 0.35 µM
- CC50 (OVCAR-3; Homo sapiens, OVCAR-3, read-out: LC50): 2.92 µM
- TGI (OVCAR-3; OVCAR-3): 0.85 µM
- GI50 (MOLT-4; Homo sapiens, MOLT-4): 1.22 µM
- CC50 (MOLT-4; Homo sapiens, MOLT-4, read-out: LC50): 31.6 µM
- TGI (MOLT-4; MOLT-4): 3.86 µM
- GI50 (U251; Homo sapiens, U-251): 1.28 µM
- CC50 (U251; Homo sapiens, U-251, read-out: LC50): 5.65 µM
- TGI (U251; U251): 2.69 µM
- TGI (CAKI-1; CAKI-1): 2.52 µM
- GI50 (CAKI-1; Homo sapiens, CAKI-1): 1.04 µM
- CC50 (CAKI-1; Homo sapiens, CAKI-1, read-out: LC50): 6.12 µM
- TGI (HT29; HT29): 2.97 µM
- GI50 (HT29; Homo sapiens, HT-29): 0.8 µM
- CC50 (HT29; Homo sapiens, HT-29, read-out: LC50): 100 µM
- GI50 (MDA-MB-468; Homo sapiens): 1.27 µM
- TGI (MDA-MB-468): 3.09 µM
- GI50 (SF-295; Homo sapiens, SF-295): 0.7 µM
- TGI (SF-295; SF-265): 2.26 µM
- TGI (BT-549): 3.07 µM
- GI50 (BT-549; Homo sapiens): 1.55 µM
- TGI (HS 578T; HS578T): 3.90 µM
- GI50 (HS 578T; Homo sapiens, Hs-578T): 1.54 µM
- ΔTm ([1]; r = 0.5): 2 °C
- Tm ([1]; r = 0.5, oligo 2.5 μM): 56.7 °C
- Tm ([1]; r = 1): 57.7 °C
- ΔTm ([1]; r = 1): 3 °C
- Tm ([1]; r = 1.5): 58.7 °C
- ΔTm ([1]; r = 1.5): 4 °C
- Tm ([1]; r = 2.0): 61.7 °C
- ΔTm ([1]; r = 2.0): 7 °C
- IC50 (NIH3T3): 8.2 µM
- GI50 (PC-3; Homo sapiens, PC-3): 1.08 µM
- CC50 (PC-3; Homo sapiens, PC-3, read-out: LC50): 5.49 µM
- TGI (PC-3; PC-3): 2.44 µM
- GI50 (MDA-MB-435; Homo sapiens, MDA-MB-435): 1.09 µM
- CC50 (MDA-MB-435; Homo sapiens, MDA-MB-435, read-out: LC50): 5.24 µM
- TGI (MDA-MB-435; MDA-MB-435): 2.39 µM
- Ka binding affinity with oligo-2 [2]: 4 × 10^6 M^1
- GI50 (KM12; Homo sapiens, KM12): 1.42 µM
- CC50 (KM12; Homo sapiens, KM12, read-out: LC50): 6.28 µM
- TGI (KM12; KM12): 2.99 µM
- GI50 [3]: 0.16 to 3.6 µM
- TGI (A498; A498): 2.47 µM
- GI50 (A498; Homo sapiens, A498): 1.18 µM
- CC50 (A498; Homo sapiens, A498, read-out: LC50): 5.16 µM
- GI50 (UACC-62; Homo sapiens, UACC-62): 0.68 µM
- CC50 (UACC-62; Homo sapiens, UACC-62, read-out: LC50): 5.42 µM
- TGI (UACC-62; UACC-62): 2.18 µM
- TGI (ACHN): 2.12 µM
- GI50 (ACHN; Homo sapiens): 0.92 µM
- CC50 (ACHN; Homo sapiens, read-out: LC50): 4.65 µM
- GI50 (NCI-H460; Homo sapiens, NCI-H460): 0.53 µM
- CC50 (NCI-H460; Homo sapiens, NCI-H460, read-out: LC50): 5.31 µM
- TGI (NCI-H460; NCI–H460): 1.86 µM
- GI50 (OVCAR-5; Homo sapiens, OVCAR-5): 1.9 µM
- CC50 (OVCAR-5; Homo sapiens, OVCAR-5, read-out: LC50): 6.08 µM
- TGI (OVCAR-5; OVCAR-5): 3.40 µM
- GI50 (NCI-H522; Homo sapiens, NCI-H522): 1.2 µM
- CC50 (NCI-H522; Homo sapiens, NCI-H522, read-out: LC50): > 100 µM
- TGI (NCI-H522; NCI–H522): 3.97 µM
- TGI (HOP-92; HOP-92): 3.17 µM
- GI50 (HOP-92; Homo sapiens, HOP-92): 1.23 µM
- CC50 (HOP-92; Homo sapiens, HOP-92, read-out: LC50): 8.15 µM
- GI50 (IGROV1; Homo sapiens, IGROV-1): 1.15 µM
- TGI (IGROV1; IGROV1): 2.60 µM
- TGI (SR): 1.19 µM
- GI50 (SR; Homo sapiens): 0.31 µM
- CC50 (SR; Homo sapiens, read-out: LC50): > 100 µM
- TGI (HCT-15; HCT-15): 3.32 µM
- GI50 (HCT-15; Homo sapiens, HCT-15): 1.56 µM
- CC50 (HCT-15; Homo sapiens, HCT-15, read-out: LC50): 7.05 µM
- ΔTm ([4]; r = 0.5): 1 °C
- Tm ([4]; r = 0.5, oligo 2.5 μM): 57.9 °C
- Tm ([4]; r = 1): 58.9 °C
- ΔTm ([4]; r = 1): 2 °C
- Tm ([4]; r = 1.5): 58.9 °C
- ΔTm ([4]; r = 1.5): 2 °C
- Tm ([4]; r = 2.0): 59.9 °C
- ΔTm ([4]; r = 2.0): 3 °C
- GI50 (RXF 393; Homo sapiens, RXF 393): 1.01 µM
- TGI (RXF 393; RXF393): 2.35 µM
